# Assay results from ChEMBL document CHEMBL5223140, “Highly potent anti-inflammatory, analgesic and antioxidant activities of 3,5-disubstituted tetrahydro-2H-1,3,5-thiadiazine thiones” (Bioorg Med Chem Lett, 2023).
# pIC50: −log10 of the molar value.
# What was measured:
# Format in all cases: functional
# Mus musculus [1] = assay: Analgesic activity against acetic acid induced mouse model assessed as number of writhes at 5 mg/kg, po administrated for 30 mins followed by acetic acid addition and measured after 20 mins by abdominal constriction test; details: time 50 min
# Mus musculus [2] = assay: Analgesic activity against acetic acid induced mouse model assessed as reduction in writhing at 5 mg/kg, po administrated for 30 mins followed by acetic acid addition and measured after 20 mins by abdominal constriction test; parameters: scale not given: the % may be the effect or the level left; details: time 50 min
# Homo sapiens = species on record: Homo sapiens; assay: Antiinflammatory activity against human blood incubated for 15 mins by thermostatic luminometric chemiluminescence based oxidative burst assay; details: for pIC50: Homo sapiens, Blood, 0.25 h, read-out: IC50
# [3] = Antioxidant activity assessed as DPPH radical scavenging activity incubated for 30 mins by spectrophotometric analysis
# Mus musculus [4] = assay: Analgesic activity against acetic acid induced mouse model assessed as number of writhes at 10 mg/kg, po administrated for 30 mins followed by acetic acid addition and measured after 20 mins by abdominal constriction test; details: time 50 min
# Mus musculus [5] = assay: Analgesic activity against acetic acid induced mouse model assessed as reduction in writhing at 10 mg/kg, po administrated for 30 mins followed by acetic acid addition and measured after 20 mins by abdominal constriction test; parameters: scale not given: the % may be the effect or the level left; details: time 50 min
smiles,measurement,setting,value
CCN1CSC(=S)N(CC)C1,Activity,Mus musculus [1],40.21
same,Activity,Mus musculus [2],6.97%
same,pIC50,Homo sapiens,5.29
CC(C)N1CN(CC(=O)O)CSC1=S,pIC50,[3],4.06
same,IC50,Homo sapiens,Not Active
CCCCN1CSC(=S)N(CC(=O)O)C1,IC50,Homo sapiens,Not Active
CCCN1CN(CC(=O)OCC)CSC1=S,pIC50,[3],4.06
same,Activity,Mus musculus [1],29.25
same,Activity,Mus musculus [2],32.05%
same,pIC50,Homo sapiens,5.15
CCCN1CSC(=S)N(CC(=O)O)C1,pIC50,[3],4.03
same,pIC50,Homo sapiens,4.40
CCCCN1CN(CC(=O)O)CSC1=S,IC50,Homo sapiens,Not Active
CCN1CN(CC(=O)O)CSC1=S,IC50,Homo sapiens,Not Active
CCCN1CN(CC(=O)O)CSC1=S,pIC50,[3],4.11
same,pIC50,Homo sapiens,4.62
CCCN1CN(CC(=O)OCc2ccccc2)CSC1=S,pIC50,Homo sapiens,5.39
O=C(O)CN1CN(CCO)CSC1=S,pIC50,[3],4.13
same,IC50,Homo sapiens,Not Active
COc1ccc(CN2CN(CC(=O)O)CSC2=S)cc1OC,pIC50,[3],4.09
same,pIC50,Homo sapiens,< 4.00
CCCCN1CN(CC(=O)OCC)CSC1=S,pIC50,Homo sapiens,4.84
CCCN1CN(CC(=O)OC)CSC1=S,pIC50,Homo sapiens,4.49
CCN1CSC(=S)N(CC(=O)O)C1,IC50,Homo sapiens,Not Active
C[C@H](c1ccccc1)N1CSC(=S)N([C@H](C)c2ccccc2)C1,pIC50,[3],4.18
same,Activity,Mus musculus [1],39
same,Activity,Mus musculus [2],9.3%
C[C@@H](c1ccccc1)N1CSC(=S)N([C@@H](C)c2ccccc2)C1,pIC50,[3],4.16
same,Activity,Mus musculus [1],35
same,Activity,Mus musculus [2],18.6%
CC(c1ccccc1)N1CN(CCO)CSC1=S (racemic),pIC50,[3],4.11
same,IC50,Homo sapiens,Not Active
CC(C)N1CSC(=S)N(C(C)c2ccccc2)C1 (racemic),pIC50,[3],4.10
same,Activity,Mus musculus [1],41.35
same,Activity,Mus musculus [2],4.65%
same,pIC50,Homo sapiens,5.12
CCN1CSC(=S)N(C(C)c2ccccc2)C1 (racemic),pIC50,[3],4.21
same,pIC50,Homo sapiens,< 4.00
CC(c1ccccc1)N1CN(CC(=O)O)CSC1=S (racemic),pIC50,[3],4.17
same,pIC50,Homo sapiens,4.41
CCCCN1CSC(=S)N(C(C)c2ccccc2)C1 (racemic),pIC50,Homo sapiens,< 4.00
CCCN1CSC(=S)N(C(C)c2ccccc2)C1 (racemic),pIC50,[3],4.16
same,pIC50,Homo sapiens,4.77
CC(C)Cc1ccc(C(C)C(=O)O)cc1 (stereo unspecified) [IBUPROFEN],pIC50,Homo sapiens,4.95
COc1ccc2c(c1)c(CC(=O)O)c(C)n2C(=O)c1ccc(Cl)cc1 [INDOMETHACIN],Activity,Mus musculus [4],22.88
same,Activity,Mus musculus [5],48.83%
